Measurements reported in patent EP2949653A1, “ISOXAZOLE DERIVATIVES AS LEUKOTRIENE BIOSYNTHESIS INHIBITORS” (Banoglu, Erden, priority 2014, dated 2015).
pIC50: −log10 of the molar value.

Assays:
Type in all cases: cell-based
translocation of 5-LO = experiment: 5-LO subcellular localization by immunofluorescence microscopy; conditions: 0.1 and 1 µM; Ca-ionophore A23187 (2.5 µM; 3 min) (Figure 8)
15-LO = target: T1, 15-LO (Homo sapiens, UniProt P16050); experiment: 15-LO inhibition in A23187-stimulated neutrophils; conditions: up to 10 µM in A23187-stimulated neutrophils
T1 construct: 12-LO or 15-LO, up to 10 µM in A23187-stimulated neutrophils; endogenous in cells; host or cells: A23187-stimulated neutrophils
T1 sequence (P16050 1-662): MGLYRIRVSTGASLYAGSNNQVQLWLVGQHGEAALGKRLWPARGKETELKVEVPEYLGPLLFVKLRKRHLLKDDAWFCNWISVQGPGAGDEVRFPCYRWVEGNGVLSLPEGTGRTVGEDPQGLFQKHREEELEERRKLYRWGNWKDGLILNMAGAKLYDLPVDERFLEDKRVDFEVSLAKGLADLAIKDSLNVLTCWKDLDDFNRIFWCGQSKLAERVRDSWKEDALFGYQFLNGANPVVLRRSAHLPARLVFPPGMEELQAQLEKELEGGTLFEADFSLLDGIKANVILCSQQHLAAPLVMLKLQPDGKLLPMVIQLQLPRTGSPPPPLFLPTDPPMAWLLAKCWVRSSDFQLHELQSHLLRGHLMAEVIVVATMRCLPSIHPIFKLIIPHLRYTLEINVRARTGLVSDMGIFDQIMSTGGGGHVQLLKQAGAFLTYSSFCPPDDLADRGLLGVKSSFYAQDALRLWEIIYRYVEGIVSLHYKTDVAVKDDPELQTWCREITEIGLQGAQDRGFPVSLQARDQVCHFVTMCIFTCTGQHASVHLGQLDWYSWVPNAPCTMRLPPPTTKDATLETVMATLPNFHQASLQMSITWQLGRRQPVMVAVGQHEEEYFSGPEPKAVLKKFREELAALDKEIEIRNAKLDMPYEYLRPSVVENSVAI

[1] = tested on: 5-LO mediated product formation; experiment: 5-LO mediated product formation in intact monocytes stimulated with A23187; conditions: Homo sapiens, Monocyte; A23187 (2.5 µM), absence of exogenous AA (Figure 3)
Protocol: Cell based and cell-free assays carried out in biological studies, immunofluorescence microscopy analysis and zymosan-induced peritonitis in mice are performed as described hereinabove (Pegola, C. and et al., British J. Pharmacology, 2014, D01:10.1111/bph.12625). In the cell based assays (intact neutrophils or monocytes), 5-LO mediated product formation is started, after pre-incubation with test compounds (or control DMSO) for 15 min. at 37 °C, with addition of Ca-ionophore A23187 (2.5 µM) to the fresh 5 x 10^6 neutrophils or monocytes suspended in 1 ml of PGC buffer (phosphate buffered saline (PBS) solution containing 1 mg ml^-1 glucose and 1mM CaCl2, pH 7.4). After the incubation for 10 min. at 37 °C, the reaction is ended with addition of 1 ml of methanol, and 30 µL 1 N HCl, 200 ng prostaglandin B1 and 500 µL PBS are added to the mixture. […] Resulting 5-LO mediated products are extracted and analysed by the known method of high pressure liquid chromatography (HPLC) (Pergola, C. Proc Natl. Acad. Sci. U.S.A. 2008, 105, 19881). 5-LO mediated product formation (LTB4 and all trans isomers, and 5 (S)-hydro(pero)xy-6-trans-8, 11, 14-cis-eicosatetraenoic acid, 5-H(p)ETE) is expressed as ng per 10^6 cell. Cysteinyl-LTs have not been analyzed because that the amount of C4, D4 and E4 and LTB4 oxidation products are below the detection limit. […]

12-LO = target: T2, 12-LO (Homo sapiens, UniProt P18054); experiment: 12-LO inhibition in A23187-stimulated neutrophils; conditions: up to 10 µM in A23187-stimulated neutrophils
T2 construct: 12-LO or 15-LO, up to 10 µM in A23187-stimulated neutrophils; endogenous in cells; host or cells: A23187-stimulated neutrophils
T2 sequence (P18054 1-663): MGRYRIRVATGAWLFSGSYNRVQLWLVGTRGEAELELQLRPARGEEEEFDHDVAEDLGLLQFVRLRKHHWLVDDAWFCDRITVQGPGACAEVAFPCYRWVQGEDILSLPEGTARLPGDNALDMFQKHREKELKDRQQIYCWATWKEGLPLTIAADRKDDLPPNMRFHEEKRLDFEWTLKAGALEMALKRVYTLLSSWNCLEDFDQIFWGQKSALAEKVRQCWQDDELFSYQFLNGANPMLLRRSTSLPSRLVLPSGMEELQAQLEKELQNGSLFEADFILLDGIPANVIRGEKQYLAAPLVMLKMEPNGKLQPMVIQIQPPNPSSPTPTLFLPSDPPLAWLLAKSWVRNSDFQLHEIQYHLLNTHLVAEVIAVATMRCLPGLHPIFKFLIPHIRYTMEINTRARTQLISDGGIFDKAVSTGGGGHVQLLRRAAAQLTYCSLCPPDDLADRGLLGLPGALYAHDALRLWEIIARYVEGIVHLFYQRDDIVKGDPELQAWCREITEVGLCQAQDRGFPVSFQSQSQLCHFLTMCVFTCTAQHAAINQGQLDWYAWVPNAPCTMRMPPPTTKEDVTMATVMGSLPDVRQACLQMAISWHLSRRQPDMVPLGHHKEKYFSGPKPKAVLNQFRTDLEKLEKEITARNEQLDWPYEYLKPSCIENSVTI

inhibition of 15-LO (15-LO): did not inhibit
pIC50 [1]: 8.30
inhibition of 12-LO (12-LO): did not inhibit
Structure (SMILES): O=C(O)c1noc(-c2ccc(OCc3ccc4ccccc4n3)cc2)c1-c1ccc(Cl)cc1 [Compound 9hj, 4-(4-Chlorophenyl)-5-(4-(quinolin-2-ylmethoxy)phenyl)isoxazole-3-carboxylic acid]
translocation of 5-LO from soluble subcellular compartment to nuclear membrane (translocation of 5-LO): inhibited translocation
